pIC50: −log10 of the molar value.
Legend:
[1] = tested on: HCT116 colon cancer cell line; test: HCT116 cytotoxicity assay (WST-1, 72 hours); format: cell-based; details: Homo sapiens, HCT-116, read-out: IC50 (concentration resulting in a 50% reduction in cell viability), HCT116 cells
Protocol: The compounds of the invention were tested in the following cytotoxicity assay to detect anti-cancer activity. This assay determined viability of various cell lines, when treated with a test compound, by determining the metabolic activity of proliferating cells using the tetrazolium salt WST. While assays conducted with HCT116 colon cancer cell line cells were generally used to compare the relative efficacy of the compounds being tested, OVCAR8 and NCI/ADR-Res cell lines were also used according to the same procedure.
MATERIALS: • A. 10% FBS/L-glutamine/NEAA/HEPES/Na-Pyruvate/RPMI, phenol-free; • B. HCT116, OVCAR8 or NCI/ADR-Res cell lines (new vial thawed every 8-10 weeks); • C. Test compounds, typically 50 mM stocks diluted in DMSO; • D. Clear, flat, TC-surface bottomed 96-well microplates (Corning #3595); • E. WST-1: Dojindo, W201 (powder).
METHODS: • 1. […]
• b) Without removing culture medium, 0.4 μl of a 250× concentrated solution of test compound in growth media was added to HCT116, OVCAR8 or NCI/ADR-Res plates. Plates were returned to incubator and left to incubate for 72 hours. • c) 10 μL of prepared WST-1 was added to treated cells and allowed to incubate at 37° C. for 90 minutes. • d) Absorbances at 490 and 650 nm were read and viability of treated cells relative to DMSO control was determined.

Aurora A = molecular target: T1, Aurora A (Homo sapiens, UniProt O14965); test: In vitro binding assays
T1 sequence (O14965 1-403): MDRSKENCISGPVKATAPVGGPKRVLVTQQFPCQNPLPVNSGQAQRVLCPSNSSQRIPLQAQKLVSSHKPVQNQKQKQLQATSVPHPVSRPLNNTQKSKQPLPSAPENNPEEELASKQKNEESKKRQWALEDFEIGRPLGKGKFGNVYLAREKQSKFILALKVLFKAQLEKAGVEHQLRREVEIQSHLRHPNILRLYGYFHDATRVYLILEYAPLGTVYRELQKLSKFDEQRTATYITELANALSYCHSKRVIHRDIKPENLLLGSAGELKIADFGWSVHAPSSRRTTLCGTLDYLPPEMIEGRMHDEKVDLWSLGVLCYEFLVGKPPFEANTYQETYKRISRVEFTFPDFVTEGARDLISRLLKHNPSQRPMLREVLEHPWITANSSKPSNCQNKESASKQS

pIC50 (Aurora A): 6.38
SMILES: NCCCOc1ccc(Nc2nc(NC3CCCCC3)c3nc[nH]c3n2)cc1 [N2-[4-(3-aminopropoxy)phenyl]-N-6-cyclohexyl-9H-purine-2,6-diamine]
pIC50 [1]: 5.92
